A short description of the data set: Spreading experiments on a modified Wilhelmy balance. It is filed as physicochemical. As to conditions: Curosurf diluted to 20 mg/ml, 10 microl. Here is the method:
Experiments were performed at 37° C. using a modified Wilhelmy balance with a surface area of 20 cm^2. Standard amounts of Curosurf at various concentrations (10-80 mg/ml) were applied onto a hypophase of saline, approximately 40 mm from the dipping plate. In some experiments, CaCl2 (2 mM), dextran (30 mg/ml), or polymyxin B (2% on the weight of the surfactant, i.e. 0.4 mg/ml) was added to diluted surfactant material (20 mg/ml). The effect of albumin at low concentration (0.1 mg/ml) added to the hypophase was also investigated. Surface tension, measured 1 sec after administration of the sample was used as a parameter combining spreading and film formation by adsorption from the hypophase.

The mark [1] stands for this setting: agent added to surfactant (CaCl2 2 mM, dextran 30 mg/ml, polymyxin B 2% = 0.4 mg/ml), no albumin.
[2] abbreviates: agent added to surfactant, albumin 0.1 mg/ml added to the hypophase.

As for `[Ca+2].[Cl-].[Cl-]` [CaCl2], the “Surface tension at 1 sec (mN/m)” value by setting is: under setting [1], 52 mN/m; under setting [2], 70 mN/m.
As for polymyxin B, the “Surface tension at 1 sec (mN/m)” value was determined as 28 mN/m under setting [1] and 45 mN/m under setting [2].

Source of the values: patent US20090170758A1, “COMPOSITIONS COMPRISING PULMONARY SURFACTANTS AND A POLYMYXIN HAVING IMPROVED SURFACE PROPERTIES” (Chiesi Farmaceutici S.p.A., priority 2002, published 2009).
